Read-outs that look alike come from different tables or passages of the source.
How the values were obtained:
Format in all cases: cell-based
[1] = molecular target: T1, N-type calcium channels (α1B+α2δ+β1b cDNA subunits) (Rattus norvegicus, UniProt Q02294); test: Whole cell patch clamp, tonic and frequency dependent block, N-type channels in HEK 293 (Example 5); details: for % Block (100 nM) 0.03 Hz: 0.03 Hz (tonic block); for % Block (100 nM) 0.2 Hz: 0.2 Hz (frequency dependent block)
T1 construct: expressed in transfected cells
Description: (§1) N-type calcium channel blocking activity was assayed in human embryonic kidney cells, HEK 293, stably transfected with the rat brain N-type calcium channel subunits (α1B+α2δ+β1b cDNA subunits). Alternatively, N-type calcium channels (α1B+α2δ+β1b cDNA subunits), L-type channels (α1C+α2δ+β1b cDNA subunits) and P/Q-type channels (α1A+α2δ+β1b cDNA subunits) were transiently expressed in HEK 293 cells. Briefly, cells were cultured in Dulbecco's modified eagle medium (DMEM) supplemented with 10% fetal bovine serum, 200 U/ml penicillin and 0.2 mg/ml streptomycin at 37° C. with 5% CO2. At 85% confluency cells were split with 0.25% trypsin/1 mM EDTA and plated at 10% confluency on glass coverslips. At 12 hours the medium was replaced and the cells transiently transfected using a standard calcium phosphate protocol and the appropriate calcium channel cDNAs. Fresh DMEM was supplied and the cells transferred to 28° C./5% CO2. Cells were incubated for 1 to 2 days to whole cell recording.
(§2) Whole cell patch clamp experiments were performed using an Axopatch 200B amplifier (Axon Instruments, Burlingame, Calif.) linked to a personal computer equipped with pCLAMP software. The external and internal recording solutions contained, respectively, 5 mM BaCl2, 1 mM MgCl2, 10 mM HEPES, 40 mM TEACl, 10 mM glucose, 87.5 mM CsCl (pH 7.2) and 108 mM CsMS, 4 mM MgCl2, 9 mM EGTA, 9 mM HEPES (pH 7.2). Currents were typically elicited from a holding potential of −80 mV to +10 mV using Clampex software (Axon Instruments). Typically, currents were first elicited with low frequency stimulation (0.03 Hz) and allowed to stabilize prior to application of the compounds. The compounds were then applied during the low frequency pulse trains for two to three minutes to assess tonic block, and subsequently the pulse frequency was increased to 0.2 Hz to assess frequency dependent block. Data were analyzed using Clampfit (Axon Instruments) and SigmaPlot 4.0 (Jandel Scientific).

[2] = molecular target: T2, L-type channels (α1C+α2δ+β1b cDNA subunits) (UniProt P22002); test: Whole cell patch clamp, tonic and frequency dependent block, L-type channels in HEK 293 (Example 5)
T2 construct: other: α1C (L-type), 100 nM, 0.03 Hz; other: α1C (L-type), 100 nM, 0.2 Hz; other: α1C (L-type), 0.03 Hz; other: α1C (L-type), 0.2 Hz
Description: as §1, §2
(§3) Tables 2 and 3 show the results of similar experiments conducted with P/Q-type and L-type channels expressed in HEK 293 cells.

[3] = molecular target: P/Q-type channels (α1A+α2δ+β1b cDNA subunits) (UniProt P54282); test: Whole cell patch clamp, tonic and frequency dependent block, P/Q-type channels in HEK 293 (Example 5)
Description: as §1, §2, §3

[4] = molecular target: T3, rat α1B+α2b+β1b channels (N-type channels) (Rattus norvegicus, UniProt Q02294); test: Whole cell patch recordings, N-type calcium channel block (Examples 1 and 4); details: block of N-type calcium channels, HEK cells, 5 mM barium as charge carrier
T3 construct: expressed in transfected cells
Description: Antagonist activity was measured using whole cell patch recordings on human embryonic kidney cells either stably or transiently expressing rat α1B+α2b+β1b channels (N-type channels) with 5 mM barium as a charge carrier.
For transient expression, host cells, such as human embryonic kidney cells, HEK 293 (ATCC# CRL 1573) were grown in standard DMEM medium supplemented with 2 mM glutamine and 10% fetal bovine serum. HEK 293 cells were transfected by a standard calcium-phosphate-DNA coprecipitation method using the rat α1B+β1b+α2δ N-type calcium channel subunits in a vertebrate expression vector (for example, see Current Protocols in Molecular Biologyl ).
After an incubation period of from 24 to 72 hrs the culture medium was removed and replaced with external recording solution (see below). Whole cell patch clamp experiments were performed using an Axopatch 200B amplifier (Axon Instruments, Burlingame, Calif.) linked to an IBM compatible personal computer equipped with pCLAMP software. Borosilicate glass patch pipettes (Sutter Instrument Co., Novato, Calif.) were polished (Microforge, Narishige, Japan) to a resistance of about 4 MΩ when filled with cesium methanesulfonate internal solution (composition in MM: 109 CsCH3SO4, 4 MgCl2, 9 EGTA, 9 HEPES, pH 7.2). Cells were bathed in 5 mM Ba^++ (in mM: 5 BaCl2, 1 MgCl2, 10 HEPES, 40 tetraethylammonium chloride, 10 glucose, 87.5 CsCl pH 7.2). Current data shown were elicited by a train of 100 ms test pulses at 0.066 Hz from −100 mV and/or −80 mV to various potentials (min. −20 mV, max. +30 mV). Drugs were perfused directly into the vicinity of the cells using a microperfusion system.
Normalized dose-response curves were fit (Sigmaplot 4.0, SPSS Inc., Chicago, Ill.) by the Hill equation to determine IC50 values. Steady-state inactivation curves were plotted as the normalized test pulse amplitude following 5 s inactivating prepulses at +10 mV increments. Inactivation curves were fit (Sigmaplot 4.0) with the Boltzman equation, Ipeak (normalized)=1/(1+exp((V−Vh)z/25.6)), where V and Vh are the conditioning and half inactivation potentials, respectively, and z is the slope factor.

[5] = Table 4 summary, 0.2 Hz, N-type, unit not given in Table 4 (μM in Table 1), read-out: N (IC50 values)
[6] = α1B (N-type), 0.03 Hz, read-out: Estimated IC50 (μM) 0.03 Hz
[7] = α1B (N-type), 0.2 Hz, read-out: Estimated IC50 (μM) 0.2 Hz
[8] = Table 4 summary, 0.2 Hz, L-type, unit not given in Table 4 (μM in Table 3), read-out: L (IC50 values)
[9] = α1C (L-type), 0.03 Hz, read-out: Estimated IC50 (μM) 0.03 Hz
[10] = α1C (L-type), 0.2 Hz, read-out: Estimated IC50 (μM) 0.2 Hz
[11] = Table 4 summary, 0.2 Hz, P/Q-type, unit not given in Table 4 (μM in Table 2), read-out: P/Q (IC50 values)
[12] = α1A (P/Q-type), 0.03 Hz, read-out: Estimated IC50 (μM) 0.03 Hz
[13] = α1A (P/Q-type), 0.2 Hz, read-out: Estimated IC50 (μM) 0.2 Hz

T3 sequence (Q02294 whole entry): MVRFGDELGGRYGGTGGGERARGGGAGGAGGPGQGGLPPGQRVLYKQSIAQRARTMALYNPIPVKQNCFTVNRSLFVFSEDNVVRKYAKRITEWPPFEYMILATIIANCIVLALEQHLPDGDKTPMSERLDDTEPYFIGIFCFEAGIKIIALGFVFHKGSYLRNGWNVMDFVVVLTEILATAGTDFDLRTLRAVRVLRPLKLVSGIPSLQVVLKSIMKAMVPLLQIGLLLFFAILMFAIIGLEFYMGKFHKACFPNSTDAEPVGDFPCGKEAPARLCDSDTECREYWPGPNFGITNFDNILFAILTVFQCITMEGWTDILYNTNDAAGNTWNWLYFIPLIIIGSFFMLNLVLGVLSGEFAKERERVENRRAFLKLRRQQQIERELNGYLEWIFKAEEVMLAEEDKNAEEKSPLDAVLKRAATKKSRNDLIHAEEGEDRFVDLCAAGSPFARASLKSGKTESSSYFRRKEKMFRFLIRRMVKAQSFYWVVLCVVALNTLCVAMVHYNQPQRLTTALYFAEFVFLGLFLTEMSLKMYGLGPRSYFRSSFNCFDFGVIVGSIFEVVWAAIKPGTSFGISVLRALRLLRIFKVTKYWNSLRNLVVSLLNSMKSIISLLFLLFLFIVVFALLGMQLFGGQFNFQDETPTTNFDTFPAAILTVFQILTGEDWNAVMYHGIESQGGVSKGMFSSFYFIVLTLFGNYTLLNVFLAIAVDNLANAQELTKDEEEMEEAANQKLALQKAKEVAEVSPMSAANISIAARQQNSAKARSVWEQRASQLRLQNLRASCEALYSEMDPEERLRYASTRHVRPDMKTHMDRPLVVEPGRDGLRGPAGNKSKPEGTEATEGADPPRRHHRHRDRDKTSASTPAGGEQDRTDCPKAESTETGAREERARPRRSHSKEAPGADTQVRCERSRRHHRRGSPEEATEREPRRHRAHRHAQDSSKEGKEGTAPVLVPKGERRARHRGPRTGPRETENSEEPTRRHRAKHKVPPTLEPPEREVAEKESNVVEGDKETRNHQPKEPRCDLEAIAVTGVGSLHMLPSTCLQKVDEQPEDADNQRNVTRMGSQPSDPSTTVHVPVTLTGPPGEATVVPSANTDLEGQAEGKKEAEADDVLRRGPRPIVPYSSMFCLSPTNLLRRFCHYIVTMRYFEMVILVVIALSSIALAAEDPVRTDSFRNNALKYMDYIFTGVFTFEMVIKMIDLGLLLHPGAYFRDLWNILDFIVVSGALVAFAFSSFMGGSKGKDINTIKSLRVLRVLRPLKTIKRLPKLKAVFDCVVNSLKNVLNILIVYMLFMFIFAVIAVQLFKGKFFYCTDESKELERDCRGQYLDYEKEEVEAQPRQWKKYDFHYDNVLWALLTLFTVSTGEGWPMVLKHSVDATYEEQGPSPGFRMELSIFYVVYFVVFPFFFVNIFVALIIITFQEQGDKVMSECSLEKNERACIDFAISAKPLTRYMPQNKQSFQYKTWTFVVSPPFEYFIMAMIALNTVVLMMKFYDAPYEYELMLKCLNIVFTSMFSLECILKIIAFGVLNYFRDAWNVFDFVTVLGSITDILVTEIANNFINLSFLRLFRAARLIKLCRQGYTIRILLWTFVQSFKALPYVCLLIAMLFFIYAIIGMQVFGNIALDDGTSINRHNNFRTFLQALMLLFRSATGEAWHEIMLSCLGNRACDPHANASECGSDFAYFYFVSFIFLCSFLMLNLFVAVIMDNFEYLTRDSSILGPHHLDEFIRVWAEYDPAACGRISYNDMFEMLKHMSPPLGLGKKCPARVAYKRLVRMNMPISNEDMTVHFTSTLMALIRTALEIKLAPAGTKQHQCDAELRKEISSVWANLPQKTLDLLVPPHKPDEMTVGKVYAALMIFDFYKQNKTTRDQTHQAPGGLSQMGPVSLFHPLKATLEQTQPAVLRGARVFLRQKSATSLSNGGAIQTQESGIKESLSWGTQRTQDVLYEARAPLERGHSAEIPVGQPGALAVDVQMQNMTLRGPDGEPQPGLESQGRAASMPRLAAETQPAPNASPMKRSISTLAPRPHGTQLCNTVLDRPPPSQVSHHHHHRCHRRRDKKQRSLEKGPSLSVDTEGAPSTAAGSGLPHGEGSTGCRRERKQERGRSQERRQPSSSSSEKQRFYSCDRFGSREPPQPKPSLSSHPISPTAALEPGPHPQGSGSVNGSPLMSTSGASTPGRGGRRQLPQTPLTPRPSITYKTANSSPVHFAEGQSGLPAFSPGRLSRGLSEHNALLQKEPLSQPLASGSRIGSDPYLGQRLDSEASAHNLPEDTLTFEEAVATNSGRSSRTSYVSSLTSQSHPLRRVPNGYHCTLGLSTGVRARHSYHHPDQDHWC
T3 sequence (P54290 25-944 partner limits assumed): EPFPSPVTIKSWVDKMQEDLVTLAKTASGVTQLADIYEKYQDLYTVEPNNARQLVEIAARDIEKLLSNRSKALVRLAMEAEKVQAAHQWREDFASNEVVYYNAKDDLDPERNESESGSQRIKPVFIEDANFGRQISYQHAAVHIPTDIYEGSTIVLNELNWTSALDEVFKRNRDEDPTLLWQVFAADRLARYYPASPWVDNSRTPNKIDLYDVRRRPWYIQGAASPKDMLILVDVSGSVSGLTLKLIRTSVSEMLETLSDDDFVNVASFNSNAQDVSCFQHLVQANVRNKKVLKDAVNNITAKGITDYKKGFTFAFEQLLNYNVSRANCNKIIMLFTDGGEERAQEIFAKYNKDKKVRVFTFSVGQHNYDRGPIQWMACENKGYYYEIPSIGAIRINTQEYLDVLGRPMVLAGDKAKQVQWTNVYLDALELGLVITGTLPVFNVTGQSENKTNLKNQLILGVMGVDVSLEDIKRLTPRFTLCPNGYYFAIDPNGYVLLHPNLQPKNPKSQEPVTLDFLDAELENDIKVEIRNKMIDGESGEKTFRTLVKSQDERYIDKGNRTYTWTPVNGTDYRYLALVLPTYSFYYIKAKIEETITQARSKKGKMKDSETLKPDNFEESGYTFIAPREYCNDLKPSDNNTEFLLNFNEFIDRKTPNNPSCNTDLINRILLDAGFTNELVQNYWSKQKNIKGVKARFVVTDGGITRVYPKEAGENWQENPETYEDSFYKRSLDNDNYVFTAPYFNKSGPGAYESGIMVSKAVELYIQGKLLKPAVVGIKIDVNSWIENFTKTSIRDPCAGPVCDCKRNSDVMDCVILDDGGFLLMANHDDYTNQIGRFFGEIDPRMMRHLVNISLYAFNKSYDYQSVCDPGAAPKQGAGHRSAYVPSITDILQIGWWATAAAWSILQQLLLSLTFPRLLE
T3 sequence (P54290 945-1091 partner limits assumed): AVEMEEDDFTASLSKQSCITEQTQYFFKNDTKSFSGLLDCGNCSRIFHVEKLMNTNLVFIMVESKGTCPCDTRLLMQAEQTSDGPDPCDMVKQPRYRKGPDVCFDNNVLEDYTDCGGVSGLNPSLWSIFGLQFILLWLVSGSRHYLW
T3 sequence (P54283 whole entry partner): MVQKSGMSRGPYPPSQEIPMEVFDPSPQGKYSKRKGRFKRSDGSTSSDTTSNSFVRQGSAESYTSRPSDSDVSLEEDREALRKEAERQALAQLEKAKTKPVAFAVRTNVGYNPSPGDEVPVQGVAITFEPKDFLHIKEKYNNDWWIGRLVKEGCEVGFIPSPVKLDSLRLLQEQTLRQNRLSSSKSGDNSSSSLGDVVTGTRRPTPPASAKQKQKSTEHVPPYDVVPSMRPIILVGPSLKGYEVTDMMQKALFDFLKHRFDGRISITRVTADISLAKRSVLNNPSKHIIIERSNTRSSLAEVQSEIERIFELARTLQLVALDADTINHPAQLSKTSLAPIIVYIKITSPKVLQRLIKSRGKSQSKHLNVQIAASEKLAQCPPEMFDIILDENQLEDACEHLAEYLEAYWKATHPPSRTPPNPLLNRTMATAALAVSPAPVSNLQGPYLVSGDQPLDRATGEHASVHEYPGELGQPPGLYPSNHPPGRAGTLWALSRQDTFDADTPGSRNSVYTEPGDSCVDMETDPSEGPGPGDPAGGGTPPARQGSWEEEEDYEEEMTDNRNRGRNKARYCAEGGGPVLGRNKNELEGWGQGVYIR
T1 sequence (Q02294 whole entry): as the sequence (Q02294 whole entry) above
T1 sequence (P54290 25-944 partner limits assumed): as the sequence (P54290 25-944 partner limits assumed) above
T1 sequence (P54290 945-1091 partner limits assumed): as the sequence (P54290 945-1091 partner limits assumed) above
T1 sequence (P54283 whole entry partner): as the sequence (P54283 whole entry partner) above

Row | Structure (SMILES) | IC50 [1, 5] [µM] | % Block (100 nM) 0.03 Hz ([1]; α1B (N-type)) [%] | % Block (100 nM) 0.2 Hz ([1]; α1B (N-type)) [%] | IC50 [1, 6] [µM] | IC50 [1, 7] [µM] | IC50 [2, 8] [µM] | % Block (100 nM) 0.03 Hz ([2]; α1C (L-type), 0.03 Hz) [%] | % Block (100 nM) 0.2 Hz ([2]; α1C (L-type), 0.2 Hz) [%] | IC50 [2, 9] [µM] | IC50 [2, 10] [µM] | IC50 [3, 11] [µM] | % Block (100 nM) 0.03 Hz ([3]; α1A (P/Q-type), 0.03 Hz) [%] | % Block (100 nM) 0.2 Hz ([3]; α1A (P/Q-type), 0.2 Hz) [%] | IC50 [3, 12] [µM] | IC50 [3, 13] [µM] | IC50 [4] [µM]
1 | COc1ccc(CN2CCN(C(c3ccc(F)cc3)c3ccc(F)cc3)CC2)c(OC)c1OC [39-36-1 Lomerizine, Lomerizine, reference compound] | 0.09 | 24 | 54 | 0.39 | 0.09 | 0.15 | 26 | 44 | 0.29 | 0.15 | 0.07 | 25 | 57 | 0.46 | 0.07 | 
2 | O=C(CCCCCC(c1ccccc1)C1CCCCC1)N1CCN(C(c2ccccc2)c2ccccc2)CC1 (stereo not drawn) [Φ, Cy; CH(CH2)5CO; N; 0; CHΦ2] |  |  |  |  |  |  |  |  |  |  |  |  |  |  |  | 10.2
3 | c1ccc(C(CCN2CCC(NCC3CCCCC3)CC2)c2ccccc2)cc1 [Φ, Φ; CH(CH2)2; CHNH; 1; Cy] |  |  |  |  |  |  |  |  |  |  |  |  |  |  |  | 2 to 3
4 | O=C(/C=C/c1ccc2c(c1)OCO2)N1CCN(C(=O)CCCCC(c2ccccc2)c2ccccc2)CC1 [SH-123B] | 0.13 | 9 | 45 | 1.27 | 0.13 | 0.74 | 8 | 14 | 2.06 | 0.74 | 0.13 | 16 | 44 | 0.55 | 0.13 | 
5 | c1ccc(CCN2CCN(CCCCCC(c3ccccc3)C3CCCCC3)CC2)cc1 (stereo not drawn) [Φ, Cy; CH(CH2)5; N; 2; Φ] |  |  |  |  |  |  |  |  |  |  |  |  |  |  |  | 3.1
6 | c1ccc(C(CN2CCN(CC3CCCCC3)CC2)C2CCCCC2)cc1 (stereo not drawn) [Φ, Cy; CHCH2; N; 1; Cy] |  |  |  |  |  |  |  |  |  |  |  |  |  |  |  | 20.2
7 | c1ccc(C(CN2CCC(NCC3CCCCC3)CC2)c2ccccc2)cc1 [Φ, Φ; CHCH2; CHNH; 1; Cy] |  |  |  |  |  |  |  |  |  |  |  |  |  |  |  | 3 to 4
8 | Nc1ccc(/C=C/C(=O)N2CCN(C(=O)CCCCC(c3ccccc3)c3ccccc3)CC2)cc1 [SH-134] | 0.15 | 20 | 41 | 0.44 | 0.15 | 0.83 | 11 | 21 | 1.6 | 0.83 | 0.12 | 20 | 45 | 0.45 | 0.12 | 
9 | CC(=O)Nc1ccc(/C=C/C(=O)N2CCN(C(=O)CCCCC(c3ccccc3)c3ccccc3)CC2)cc1 [SH-136] | 0.14 | 14 | 44 | 0.63 | 0.14 | 1.4 | 4 | 8 | 2.8 | 1.4 | 0.15 | 18 | 42 | 0.52 | 0.15 | 
10 | c1ccc(CNC2CCN(CCC(c3ccccc3)c3ccccc3)CC2)cc1 [Φ, Φ; CH(CH2)2; CHNH; 1; Φ] |  |  |  |  |  |  |  |  |  |  |  |  |  |  |  | 2

Source: patent US7064128B2, “Preferentially substituted calcium channel blockers” (NeuroMed Technologies, Inc., priority 1998, dated 2006)
